Measurements published in ChEMBL document CHEMBL4017512 (J Med Chem, 2017).

How the values were obtained:
HCT-116 = test: Antiproliferative activity against human HCT116 cells after 72 hrs by phosphatase assay; assay type: functional, cell-based; conditions: HCT-116, 72 h
L1210 = test: Antiproliferative activity against mouse L1210 cells after 72 hrs by phosphatase assay; assay type: functional, cell-based; conditions: L1210, 72 h
[1] = Cytotoxicity against human HCT116/VM46 cells assessed as reduction in cell viability after 72 hrs by phosphatase assay; assay type: cell-based; conditions: HCT-116/VM46, 72 h

| IC50 (HCT-116) [nM] | IC50 (L1210) [nM] | SMILES | IC50 [1] [nM] |
| --- | --- | --- | --- |
| 30 | 30 | CC[C@]1(NC(=O)c2cc(C)c(OCc3ccccc3)c(C)c2)C[C@H]2CN(CCc3c([nH]c4ccccc34)[C@@](C(=O)OC)(c3cc4c(cc3OC)N(C)[C@H]3[C@@](O)(C(=O)OC)[C@H](OC(C)=O)[C@]5(CC)C=CCN6CC[C@]43[C@@H]65)C2)C1 | 80 |
| 7.1 | 6 | CC[C@]1(NC(=O)c2ccc(C)c(NC(=O)OC(C)(C)C)c2)C[C@H]2CN(CCc3c([nH]c4ccccc34)[C@@](C(=O)OC)(c3cc4c(cc3OC)N(C)[C@H]3[C@@](O)(C(=O)OC)[C@H](OC(C)=O)[C@]5(CC)C=CCN6CC[C@]43[C@@H]65)C2)C1 | 90 |
| 2.7 | 4.2 | CC[C@]1(NC(=O)c2cccc(Cl)c2)C[C@H]2CN(CCc3c([nH]c4ccccc34)[C@@](C(=O)OC)(c3cc4c(cc3OC)N(C)[C@H]3[C@@](O)(C(=O)OC)[C@H](OC(C)=O)[C@]5(CC)C=CCN6CC[C@]43[C@@H]65)C2)C1 | 20 |
| 5.9 | 4.8 | CC[C@]1(NC(=O)c2cccc(OC(F)(F)F)c2)C[C@H]2CN(CCc3c([nH]c4ccccc34)[C@@](C(=O)OC)(c3cc4c(cc3OC)N(C)[C@H]3[C@@](O)(C(=O)OC)[C@H](OC(C)=O)[C@]5(CC)C=CCN6CC[C@]43[C@@H]65)C2)C1 | 50 |
| 0.6 | 0.5 | CC[C@]1(NC(=O)/C=C/c2ccsc2)C[C@H]2CN(CCc3c([nH]c4ccccc34)[C@@](C(=O)OC)(c3cc4c(cc3OC)N(C)[C@H]3[C@@](O)(C(=O)OC)[C@H](OC(C)=O)[C@]5(CC)C=CCN6CC[C@]43[C@@H]65)C2)C1 | 20 |
| 6.1 | 6.1 | CC[C@]1(NC(=O)c2ccc([N+](=O)[O-])cc2)C[C@H]2CN(CCc3c([nH]c4ccccc34)[C@@](C(=O)OC)(c3cc4c(cc3OC)N(C)[C@H]3[C@@](O)(C(=O)OC)[C@H](OC(C)=O)[C@]5(CC)C=CCN6CC[C@]43[C@@H]65)C2)C1 | 60 |
| 3.2 | 3.1 | CC[C@]1(NC(=O)c2ccc(Cl)cc2)C[C@H]2CN(CCc3c([nH]c4ccccc34)[C@@](C(=O)OC)(c3cc4c(cc3OC)N(C)[C@H]3[C@@](O)(C(=O)OC)[C@H](OC(C)=O)[C@]5(CC)C=CCN6CC[C@]43[C@@H]65)C2)C1 | 50 |
| 6.1 | 4.2 | CCOc1ccc(C(=O)N[C@@]2(CC)C[C@H]3CN(CCc4c([nH]c5ccccc45)[C@@](C(=O)OC)(c4cc5c(cc4OC)N(C)[C@H]4[C@@](O)(C(=O)OC)[C@H](OC(C)=O)[C@]6(CC)C=CCN7CC[C@]54[C@@H]76)C3)C2)cc1Cl | 40 |
| 5.8 | 5.6 | CC[C@]1(NC(=O)c2ccc(NC(=O)OC(C)(C)C)c(C)c2)C[C@H]2CN(CCc3c([nH]c4ccccc34)[C@@](C(=O)OC)(c3cc4c(cc3OC)N(C)[C@H]3[C@@](O)(C(=O)OC)[C@H](OC(C)=O)[C@]5(CC)C=CCN6CC[C@]43[C@@H]65)C2)C1 | 30 |
| 0.5 | 0.4 | CC[C@]1(NC(=O)c2ccc(SC)cc2)C[C@H]2CN(CCc3c([nH]c4ccccc34)[C@@](C(=O)OC)(c3cc4c(cc3OC)N(C)[C@H]3[C@@](O)(C(=O)OC)[C@H](OC(C)=O)[C@]5(CC)C=CCN6CC[C@]43[C@@H]65)C2)C1 | 6.8 |
| 1.9 | 3.1 | CC[C@]1(NC(=O)c2cc3ccccc3s2)C[C@H]2CN(CCc3c([nH]c4ccccc34)[C@@](C(=O)OC)(c3cc4c(cc3OC)N(C)[C@H]3[C@@](O)(C(=O)OC)[C@H](OC(C)=O)[C@]5(CC)C=CCN6CC[C@]43[C@@H]65)C2)C1 | 9.2 |
| 3.3 | 4.3 | CC[C@]1(NC(=O)c2ccc(C(F)(F)F)cc2)C[C@H]2CN(CCc3c([nH]c4ccccc34)[C@@](C(=O)OC)(c3cc4c(cc3OC)N(C)[C@H]3[C@@](O)(C(=O)OC)[C@H](OC(C)=O)[C@]5(CC)C=CCN6CC[C@]43[C@@H]65)C2)C1 | 55 |
| 25 | 30 | CC[C@]1(NC(=O)C2CCCC2)C[C@H]2CN(CCc3c([nH]c4ccccc34)[C@@](C(=O)OC)(c3cc4c(cc3OC)N(C)[C@H]3[C@@](O)(C(=O)OC)[C@H](OC(C)=O)[C@]5(CC)C=CCN6CC[C@]43[C@@H]65)C2)C1 | 380 |
| 40 | 60 | CC[C@]1(NC(=O)c2ccc(Br)c(Br)c2)C[C@H]2CN(CCc3c([nH]c4ccccc34)[C@@](C(=O)OC)(c3cc4c(cc3OC)N(C)[C@H]3[C@@](O)(C(=O)OC)[C@H](OC(C)=O)[C@]5(CC)C=CCN6CC[C@]43[C@@H]65)C2)C1 | 80 |

| SMILES | IC50 (HCT-116) [nM] | IC50 (L1210) [nM] | IC50 [1] [nM] |
| --- | --- | --- | --- |
| CC[C@]1(NC(=O)c2nc3ccccc3o2)C[C@H]2CN(CCc3c([nH]c4ccccc34)[C@@](C(=O)OC)(c3cc4c(cc3OC)N(C)[C@H]3[C@@](O)(C(=O)OC)[C@H](OC(C)=O)[C@]5(CC)C=CCN6CC[C@]43[C@@H]65)C2)C1 | 60 | 60 | 190 |
| CC[C@]1(NC(=O)C(c2ccccc2)c2ccccc2)C[C@H]2CN(CCc3c([nH]c4ccccc34)[C@@](C(=O)OC)(c3cc4c(cc3OC)N(C)[C@H]3[C@@](O)(C(=O)OC)[C@H](OC(C)=O)[C@]5(CC)C=CCN6CC[C@]43[C@@H]65)C2)C1 | 3800 | 760 | 5100 |
| CC[C@]1(NC(=O)c2ccoc2)C[C@H]2CN(CCc3c([nH]c4ccccc34)[C@@](C(=O)OC)(c3cc4c(cc3OC)N(C)[C@H]3[C@@](O)(C(=O)OC)[C@H](OC(C)=O)[C@]5(CC)C=CCN6CC[C@]43[C@@H]65)C2)C1 | 0.6 | 0.7 | 6.3 |
| CC[C@]1(NC(=O)c2ccc(OC)c(OC)c2)C[C@H]2CN(CCc3c([nH]c4ccccc34)[C@@](C(=O)OC)(c3cc4c(cc3OC)N(C)[C@H]3[C@@](O)(C(=O)OC)[C@H](OC(C)=O)[C@]5(CC)C=CCN6CC[C@]43[C@@H]65)C2)C1 | 0.07 | 0.06 | 1.4 |
| CC[C@]1(NS(=O)(=O)c2ccc(C)cc2)C[C@H]2CN(CCc3c([nH]c4ccccc34)[C@@](C(=O)OC)(c3cc4c(cc3OC)N(C)[C@H]3[C@@](O)(C(=O)OC)[C@H](OC(C)=O)[C@]5(CC)C=CCN6CC[C@]43[C@@H]65)C2)C1 | 30 | 40 | 330 |
| CC[C@]1(NC(=O)c2ccc(NC(=O)OC(C)(C)C)cc2)C[C@H]2CN(CCc3c([nH]c4ccccc34)[C@@](C(=O)OC)(c3cc4c(cc3OC)N(C)[C@H]3[C@@](O)(C(=O)OC)[C@H](OC(C)=O)[C@]5(CC)C=CCN6CC[C@]43[C@@H]65)C2)C1 | 0.3 | 0.3 | 30 |
| CC[C@]1(NC(=O)c2ccc(C)cc2)C[C@H]2CN(CCc3c([nH]c4ccccc34)[C@@](C(=O)OC)(c3cc4c(cc3OC)N(C)[C@H]3[C@@](O)(C(=O)OC)[C@H](OC(C)=O)[C@]5(CC)C=CCN6CC[C@]43[C@@H]65)C2)C1 | 0.45 | 0.5 | 4.5 |
